Experiment [1] can be described thus: Inhibition of IL-1beta release in PMA-differentiated/ LPS and nigericin stimulated human THP-1 cells at 0.5 uM pretreated with LPS for 3 hrs followed by incubation with compound for 40 mins and later stimulated with nigericin for 40 mins by ELISA. Format: functional. The note with it: THP-1, 1.333 h, time 80 min. A general note: In an ELISA, binding on a coated surface is turned into a signal by an enzyme label.

Experiment [2] in a line: Inhibition of IL-1beta release in PMA-differentiated/ LPS and nigericin stimulated human THP-1 cells at 0.1 uM pretreated with LPS for 3 hrs followed by incubation with compound for 40 mins and later stimulated with nigericin for 40 mins by ELISA. Format: functional. The settings on record: THP-1, 1.333 h, time 80 min.
A short description of experiment [3]: Inhibition of IL-1beta release in PMA-differentiated/ LPS and nigericin stimulated human THP-1 cells pretreated with LPS for 3 hrs followed by incubation with compound for 40 mins and later stimulated with nigericin for 40 mins by ELISA. In kind it is functional, cell-based.
A further experiment deals with Mus musculus. The experiment is described as follows: Antiinflammatory activity against LPS induced septic shock in BALB/c mouse assessed as increase in survival rate at 25 mg/kg, ip pretreated for 1 hr followed by LPS stimulation and measured after 72 hrs. In kind it is functional. The note with it: time 73 hrs.

The record followed here is ChEMBL document CHEMBL5584341, “Discovery of Potent, Specific, and Orally Available NLRP3 Inflammasome Inhibitors Based on Pyridazine Scaffolds for the Treatment of Septic Shock and Peritonitis” (J Med Chem, 2024).

On to `CC(C)(O)c1coc(S(=O)(=O)NC(=O)Nc2c3c(cc4c2CCC4)CCC3)c1`, for which the inhibition at 0.5 µM in experiment [1] stood at 99.3%. Besides, the inhibition at 0.1 µM in experiment [2] came to 99.2%. Also, the 50% inhibitory concentration (IC50) in experiment [3] turned out to be 8 nM. Moreover, the Activity in the experiment on Mus musculus is recorded as 60%.

As usually defined, the inhibition is how much of the control response was suppressed. One may read the IC50 as the point on the concentration scale where inhibition reaches its midpoint.
